Experiments:
[1] = Contrast-enhanced MR imaging of dynamic vascular and delayed phases in minipigs; type: in vivo, Gottingen minipigs; conditions: for Peak Aorta SI: aorta ROI, 3.0 T, IV single injection 0.3 ml/kg; for percentage relative vascular intensity (1-RVI %), AP: arterial phase, 30 secs; for RVI AUC (total vascular enhancement: aorta, IVC, PV): composite RVI curves normalised to liver parenchyma, trapezoidal rule; for percentage relative vascular intensity (1-RVI %), LVP: late venous phase, 120 secs; for percentage relative vascular intensity (1-RVI %), PVP: portal venous phase, 60 secs
Protocol: The study was approved by the Universitair Ziekenhuis Brussel (UZB), Belgium local ethics committee for animal experiments on the 9 Mar. 2016 (EC number: 16-272-4). All animal experiments were carried out in accordance with the applicable laws and regulations. Naïve minipigs (Gottingen minipigs, Ellegaard Gottingen Minipigs, Denmark) were chosen as the model as its cardiac function and vascular dynamics closely resembles that of the human allowing optimal spatial and temporal resolution for the evaluation of the dynamic vascular phase.
The study consisted of five dosing groups (2 groups of contrast agent administered as single stand-alone dose; 3 groups administered with the Combo formulations). Each animal was tested once within each dosing group with a washout period of one week.
For each MRI examination, anaesthesia was induced with a bolus of the Zoletil mixture (0.06 ml/kg, intramuscular) and maintained by an infusion of Nesdonal (0.6 ml/kg/h, intravenously (IV) administered). Test items were administered IV as a single injection via PAC unit (Port-a-cath, Power PAC II, 1.9 mm, Smiths Medical, Belgium). The test items were administered at a volume of 0.3 ml/kg using a power injector (Medrad Spectris Solaris) at a rate of 2 ml/s. Immediately following administration, 20 ml saline was passed through the tubing to flush any remaining test item.
All MRI acquisitions were performed on a clinical 3.0 T GE MR750w scanner (GE Discovery, GE Healthcare, Waukesha, Wis.) using an abdominal phase-array surface coil positioned on the abdomen of the pigs. A multiphase dynamic 3D T1w LAVA (Liver Acquisition with Volume Acquisition) was performed using bolus timing to capture the early arterial to the late venous vascular phase using the following imaging parameters: TR/TE=2.9/1.3 ms, FA=12°, FoV=42×40 cm, matrix 220×160, slice thickness=3 mm, number of slices=40, NEX=1. The protocol also included a free-breathing navigated LAVA acquired at both pre and post administration of test item (during the delayed enhancement phase).
Quantitative analysis on the time-resolved dynamic series was completed using the Advantage Windows VolumeShare 7 Workstation (GE Healthcare). […] Visual verification of all ROI locations was performed by an abdominal radiologist. For each test item, absolute signal intensity (SI) curves were analysed for each of the ROIs and expressed as peak value with inter-quartile ranges of 25% and 75%.
To calculate the vascular enhancement, relative vascular intensity (RVI) was normalised to liver parenchyma for the aorta, IVC and PV using the equation below.
Relative Vascular Intensity (RVI)=(SI(Vessel)−SI(Liver))/(SI(Liver))
Using the RVI curves, composite vascular intensity curves were derived encompassing all vascular signal from the aorta, IVC and the PV. The total vascular enhancement associated with each test item was determined by the trapezoidal rule of area under the curve (AUC), where positive signal above y=0 was included. From this, time-relative fractions at the arterial phase (AP: 30 secs), portal venous phase (PVP: 60 secs) and late venous phase (LVP: 120 secs) were expressed as a proportion of the total vascular AUC (% RVI) and were calculated as 1-% RVI to give the percentage reduction though each phase.
For the delayed phase, a qualitative assessment was performed by an experienced radiologist for the presence or lack of enhancement pre and post-administration of test item.

[2] = In vitro relaxivity measurements (NMR relaxometer, 60 MHz, 37° C.); type: physicochemical
Protocol: In vitro relaxivity measurements were used to evaluate the efficacy (relaxivity) of the Combo formulations compared to the standalone commercial contrast agents. Longitudinal relaxation times were measured in 150 mM saline solution at 37° C. using a Minispec Mq benchtop NMR relaxometer (Bruker Instruments, Rheinstetten, Germany) operating at 60 MHz. The longitudinal relaxivity of the complexes were calculated by plotting the reciprocal of the T1 relaxation time versus the gadolinium concentration as determined via ICP-MS for each individual agent and the Combo formulations tested.

[3] = normal liver, after intravenous injection; cited from earlier work

| Substance | peak arterial enhancement, SI (in words) ([1]; SI curves, aorta) | Peak Aorta SI [1] | percentage relative vascular intensity (1-RVI %), AP [1] | RVI AUC (total vascular enhancement: aorta, IVC, PV) [1] | percentage relative vascular intensity (1-RVI %), LVP [1] | percentage relative vascular intensity (1-RVI %), PVP [1] | Relaxivity in aqueous solution (r1) [2] | vascular enhancement in LVP (in words) ([1]; 120 secs post injection) | hepatobiliary excretion [3] |
| --- | --- | --- | --- | --- | --- | --- | --- | --- | --- |
| 2-[4,7-his(carboxylatomethyl)-1 0-(carboxymethyl)-1,4, 7,10-tetrazacyclododec-1-yl]acetate; gadolinium(3+) [Gadoterate] | highest SI | 2402 | 97.5% | 63.2 AU | 8.4% | 42.8% | 2.9 mM⁻¹ s⁻¹ |  |  |
| disodium; 2-[[2-[bis(carboxylatomethyl)amino]-3-(4-ethoxyphenyl)propyl]-[2-bis(carboxylatomethyl)amino]ethyl]amino]acetate, gadolinium(3+) [Gadoxetate] |  | 2096 | 82.4% | 34.2 AU | 0.0% | 19.0% | 4.7 mM⁻¹ s⁻¹ | no vascular enhancement evident | up to 50% |
